Assay results published in patent US12410160B2 (Gilead Sciences, Inc., priority 2021, dated 2025).

Tests used:
human KHK-A = human KHK-A (Homo sapiens (Human), UniProt P50053); test: KHK Biochemical Assay (IC50), ADP-Glo, KHK-A; settings: average of at least two separate assays
Procedure, shortened: (§1)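 His-tagged enzyme expressed in BL21 (DE3), Ni-NTA purified. Compounds, serially diluted 1:3 in DMSO, pre-incubated 30 min with enzyme in 50 mM Hepes pH 7.4, 140 mM KCl, 5 mM MgCl2, 0.01% Triton-X, then ATP and fructose added; 4 h at room temperature. ADP formation read by ADP-Glo luminescence.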

human KHK-C = human KHK-C (Homo sapiens (Human), UniProt P50053); test: KHK Biochemical Assay (IC50), ADP-Glo, KHK-C; settings: average of at least two separate assays
Procedure, shortened: as §1

human KHK-A, sequence (P50053 other isoform, or with tags, fused parts or gaps): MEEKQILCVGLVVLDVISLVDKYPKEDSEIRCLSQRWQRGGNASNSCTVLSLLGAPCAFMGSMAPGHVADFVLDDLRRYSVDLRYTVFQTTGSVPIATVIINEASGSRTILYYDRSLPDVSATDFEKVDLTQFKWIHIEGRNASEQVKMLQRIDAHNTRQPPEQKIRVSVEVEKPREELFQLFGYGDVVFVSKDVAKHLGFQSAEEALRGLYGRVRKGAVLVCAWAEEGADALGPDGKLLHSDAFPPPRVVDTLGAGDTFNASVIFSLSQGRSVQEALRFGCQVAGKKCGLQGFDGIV
human KHK-C, sequence (P50053 whole entry): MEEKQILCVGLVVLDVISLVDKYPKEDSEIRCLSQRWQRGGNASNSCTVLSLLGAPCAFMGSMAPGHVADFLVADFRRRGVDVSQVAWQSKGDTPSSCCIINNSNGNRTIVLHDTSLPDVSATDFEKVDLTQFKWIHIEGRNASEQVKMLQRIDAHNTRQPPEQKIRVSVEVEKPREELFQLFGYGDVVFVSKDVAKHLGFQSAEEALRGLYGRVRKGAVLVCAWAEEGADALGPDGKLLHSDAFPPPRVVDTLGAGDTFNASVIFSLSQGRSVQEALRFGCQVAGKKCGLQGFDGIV

| IC50 (human KHK-A; ADP-Glo) | IC50 (human KHK-C; ADP-Glo) | IC50 (human KHK-A) | IC50 (human KHK-C) | Compound |
| --- | --- | --- | --- | --- |
| 847 nM | 2840 nM | – | – | C[C@H]1CCN1c1nc2c(c(-c3cccc(C(=O)Nc4ccccc4)c3)n1)CCC2 [Example 297, (S)-3-(2-(2-methylazetidin-1-yl)-6,7-dihydro-5H-cyclopenta[d]pyrimidin-4-yl)-N-phenylbenzamide] |
| 374 nM | 247 nM | – | – | C[C@H]1CCN1c1nc2c(c(-c3cc(C(N)=O)cc([N+](=O)[O-])c3)n1)CCC2 [Example 298, (S)-3-(2-(2-methylazetidin-1-yl)-6,7-dihydro-5H-cyclopenta[d]pyrimidin-4-yl)-5-nitrobenzamide] |
| 47.3 nM | 45.6 nM | – | – | C[C@H]1CCN1c1nc2c(c(-c3cc(N)cc(C(N)=O)c3)n1)CCC2 [Example 299, (S)-3-amino-5-(2-(2-methylazetidin-1-yl)-6,7-dihydro-5H-cyclopenta[d]pyrimidin-4-yl)benzamide] |
| 42.8 nM | 33.6 nM | – | – | C[C@H]1CCN1c1nc2c(c(-c3cc(NS(C)(=O)=O)cc(C(N)=O)c3)n1)CCC2 [Example 300, (S)-3-(2-(2-methylazetidin-1-yl)-6,7-dihydro-5H-cyclopenta[d]pyrimidin-4-yl)-5-(methylsulfonamido)benzamide] |
| 9.9 nM | 3.7 nM | – | – | C[C@H]1[C@H](O)CN1c1nc2c(c(-c3ccc(C4(N)CC4)cc3)n1)CCC2 [Example 301, (2S,3R)-1-(4-(4-(1-aminocyclopropyl)phenyl)-6,7-dihydro-5H-cyclopenta[d]pyrimidin-2-yl)-2-methylazetidin-3-ol] |
| 440 nM | 452 nM | – | – | Cc1ncc(-c2nc(N3CC[C@@H]3C)nc3c2CCC3)o1 [Example 325, 2-methyl-5-[2-[(2S)-2-methylazetidin-1-yl]-6,7-dihydro-5H-cyclopenta[d]pyrimidin-4-yl]oxazole] |
| 231 nM | 228 nM | – | – | Cc1cc(-c2nc(N3CC[C@@H]3C)nc3c2CCC3)on1 [Example 326, 3-methyl-5-[2-[(2S)-2-methylazetidin-1-yl]-6,7-dihydro-5H-cyclopenta[d]pyrimidin-4-yl]isoxazole] |
| 96.8 nM | 38.2 nM | – | – | Cc1cc(-c2nc(N3CC[C@@H]3C)nc3c2CCC3)sn1 [Example 327, 3-methyl-5-[2-[(2S)-2-methylazetidin-1-yl]-6,7-dihydro-5H-cyclopenta[d]pyrimidin-4-yl]isothiazole] |
| 609 nM | 502 nM | – | – | C[C@H]1CCN1c1nc2c(c(-c3cccc(CNC(=O)OC(C)(C)C)c3)n1)CCC2 [Example 328, tert-butyl N-[[3-[2-[(2S)-2-methylazetidin-1-yl]-6,7-dihydro-5H-cyclopenta[d]pyrimidin-4-yl]phenyl]methyl]carbamate] |
| > 50000 nM | > 50000 nM | – | – | C[C@H]1CCN1c1nc2c(c(-c3ccccc3)n1)CC1(CC1)C2 [Example 335, 2-[(2S)-2-methylazetidin-1-yl]-4-phenyl-spiro[5,7-dihydrocyclopenta[d]pyrimidine-6,1′-cyclopropane]] |
| 13200 nM | 20100 nM | – | – | CC1CCc2c(-c3ccccc3)nc(N3CC[C@@H]3C)nc21 (stereo partly drawn) [Example 336, 7-methyl-2-[(2S)-2-methylazetidin-1-yl]-4-phenyl-6,7-dihydro-5H-cyclopenta[d]pyrimidine] |
| 2950 nM | 5100 nM | – | – | CC1Cc2nc(N3CC[C@@H]3C)nc(-c3ccccc3)c2C1 (stereo partly drawn) [Example 337, 6-methyl-2-[(2S)-2-methylazetidin-1-yl]-4-phenyl-6,7-dihydro-5H-cyclopenta[d]pyrimidine] |
| > 50000 nM | > 50000 nM | – | – | C[C@H]1CCN1c1nc(-c2ccccc2)c2c(n1)C1(CC2)CC1 [Example 338, 2-[(2S)-2-methylazetidin-1-yl]-4-phenyl-spiro[5,6-dihydrocyclopenta[d]pyrimidine-7,1′-cyclopropane]] |
| 1900 nM | 2220 nM | – | – | CC1CCc2nc(N3CC[C@@H]3C)nc(-c3ccccc3)c21 (stereo partly drawn) [Example 339, 5-methyl-2-[(2S)-2-methylazetidin-1-yl]-4-phenyl-6,7-dihydro-5H-cyclopenta[d]pyrimidine] |
| 107 nM | 107 nM | – | – | Cc1cnc(-c2nc(N3CC[C@@H]3C)nc3c2CCC3)s1 [Example 342, 5-methyl-2-[2-[(2S)-2-methylazetidin-1-yl]-6,7-dihydro-5H-cyclopenta[d]pyrimidin-4-yl]thiazole] |
| 357 nM | 408 nM | – | – | C[C@H]1CCN1c1nc2c(c(-c3ccnnc3)n1)CCC2 [Example 343, 2-[(2S)-2-methylazetidin-1-yl]-4-pyridazin-4-yl-6,7-dihydro-5H-cyclopenta[d]pyrimidine] |
| 175 nM | 224 nM | – | – | C[C@H]1CCN1c1nc2c(c(-c3cnccn3)n1)CCC2 [Example 344, 2-[(2S)-2-methylazetidin-1-yl]-4-pyrazin-2-yl-6,7-dihydro-5H-cyclopenta[d]pyrimidine] |
| 122 nM | 162 nM | – | – | Cc1cc(-c2nc(N3CC[C@@H]3C)nc3c2CCC3)ccc1C(=O)N(C)C [Example 357, N,N,2-trimethyl-4-[2-[(2S)-2-methylazetidin-1-yl]-6,7-dihydro-5H-cyclopenta[d]pyrimidin-4-yl]benzamide] |
| 25.8 nM | 29.1 nM | – | – | C[C@H]1[C@H](O)CN1c1nc2c(c(-c3ccc(CN)s3)n1)CCC2 [Example 363, (2S,3R)-1-[4-[5-(aminomethyl)-2-thienyl]-6,7-dihydro-5H-cyclopenta[d]pyrimidin-2-yl]-2-methyl-azetidin-3-ol] |
| 224 nM | 176 nM | – | – | C[C@H]1CCN1c1nc2c(c(-c3ccc(CN4CCOCC4)cc3)n1)CCC2 [Example 367, 4-[[4-[2-[(2S)-2-methylazetidin-1-yl]-6,7-dihydro-5H-cyclopenta[d]pyrimidin-4-yl]phenyl]methyl]morpholine] |
| 38.3 nM | 20 nM | – | – | C[C@H]1CCN1c1nc2c(c(-c3ccc(CN(C)C)cc3)n1)CCC2 [Example 368, N,N-dimethyl-1-[4-[2-[(2S)-2-methylazetidin-1-yl]-6,7-dihydro-5H-cyclopenta[d]pyrimidin-4-yl]phenyl]methanamine] |
| 186 nM | 87.1 nM | – | – | C[C@H]1CCN1c1nc2c(c(-c3ccc(C(C)(C)O)cc3)n1)CCC2 [Example 369, 2-[4-[2-[(2S)-2-methylazetidin-1-yl]-6,7-dihydro-5H-cyclopenta[d]pyrimidin-4-yl]phenyl]propan-2-ol] |
| – | – | 130 nM | 306 nM | C[C@H]1CCN1c1nc2c(c(-c3cccc(C(N)=O)c3)n1)C1CC1C2 (stereo partly drawn) [Example 445, 3-(2-((S)-2-methylazetidin-1-yl)-4b,5,5a,6-tetrahydrocyclopropa[3,4]cyclopenta[1,2-d]pyrimidin-4-yl)benzamide] |
| – | – | 103 nM | 68.3 nM | C[C@H]1CCN1c1nc2c(c(-c3ccc4c(c3)[nH]c(=O)n4C)n1)CCC2 [Example 452, 3-methyl-6-[2-[(2S)-2-methylazetidin-1-yl]-6,7-dihydro-5H-cyclopenta[d]pyrimidin-4-yl]-1H-benzimidazol-2-one] |
| – | – | 2.2 nM | 0.1 nM | C[C@H]1[C@H](O)CN1c1nc(-c2ccc3c(c2)OCC32COCC(=O)N2)c2c(n1)C(F)(F)CC2 (stereo partly drawn) [Example 497, 6-(7,7-difluoro-2-((2S,3R)-3-hydroxy-2-methylazetidin-1-yl)-6,7-dihydro-5H-cyclopenta[d]pyrimidin-4-yl)-2H-spiro[benzofuran-3,3′-morpholin]-5′-one] |
| – | – | 0.9 nM | 1.3 nM | C[C@H]1[C@H](O)CN1c1nc(-c2ccc(OC3CC3)c(S(C)(=N)=O)c2)c2c(n1)C(F)(F)CC2 (stereo partly drawn) [Example 541, (2-cyclopropoxy-5-(7,7-difluoro-2-((2S,3R)-3-hydroxy-2-methylazetidin-1-yl)-6,7-dihydro-5H-cyclopenta[d]pyrimidin-4-yl)phenyl)(imino)(methyl)-λ^6-sulfanone] |
| – | – | 7.3 nM | 0.1 nM | C[C@H]1[C@H](O)CN1c1nc(-c2ccc3c(c2)CCC32COCC(=O)N2)c2c(n1)C(F)(F)CC2 (stereo partly drawn) [Example 548, 5-(7,7-difluoro-2-((2S,3R)-3-hydroxy-2-methylazetidin-1-yl)-6,7-dihydro-5H-cyclopenta[d]pyrimidin-4-yl)-2,3-dihydrospiro[indene-1,3′-morpholin]-5′-one] |

| Compound | IC50 (human KHK-A; ADP-Glo) | IC50 (human KHK-C; ADP-Glo) | IC50 (human KHK-A) | IC50 (human KHK-C) |
| --- | --- | --- | --- | --- |
| C[C@H]1CCN1c1nc2c(c(-c3ccc(C4(N5CCN(C)CC5)CC4)cc3)n1)CCC2 [Example 302, (S)-2-(2-methylazetidin-1-yl)-4-(4-(1-(4-methylpiperazin-1-yl)cyclopropyl)phenyl)-6,7-dihydro-5H-cyclopenta[d]pyrimidine] | 636 nM | 849 nM | – | – |
| C[C@H]1CCN1c1nc2c(c(-c3ccc(C4(N5CCOCC5)CC4)cc3)n1)CCC2 [Example 304, (S)-4-(1-(4-(2-(2-methylazetidin-1-yl)-6,7-dihydro-5H-cyclopenta[d]pyrimidin-4-yl)phenyl)cyclopropyl)morpholine] | 983 nM | 786 nM | – | – |
| C[C@H]1CCN1c1nc2c(c(-c3ccc(S(C)(=O)=O)cc3)n1)CCC2 [Example 354, 2-[(2S)-2-methylazetidin-1-yl]-4-(4-methylsulfonylphenyl)-6,7-dihydro-5H-cyclopenta[d]pyrimidine] | 177 nM | 138 nM | – | – |
| Cc1cc(-c2nc(N3CC[C@@H]3C)nc3c2CCC3)ccc1C(=O)NCCO [Example 356, N-(2-hydroxyethyl)-2-methyl-4-[2-[(2S)-2-methylazetidin-1-yl]-6,7-dihydro-5H-cyclopenta[d]pyrimidin-4-yl]benzamide] | 70.6 nM | 79.9 nM | – | – |
| C[C@H]1CCN1c1nc2c(c(-c3ccc(CNC(=O)c4ccccc4)cc3)n1)CCC2 [Example 360, N-[[4-[2-[(2S)-2-methylazetidin-1-yl]-6,7-dihydro-5H-cyclopenta[d]pyrimidin-4-yl]phenyl]methyl]benzamide] | 169 nM | 253 nM | – | – |
